Data set [1] has as its system Mus musculus. Kind of data set: (§1) Cmax in CD1 mouse at 10 mg/kg, ip measured at 10 to 1440 mins post dose by LC-MS/MS analysis. Particulars: mouse, in vivo. Type of data set: ADME, organism-based. The arrangement: dose 10 mg/kg, route intraperitoneal.
In data set [2] the test system is Mus musculus. Kind of data set: (§2) AUC in CD1 mouse at 10 mg/kg, ip measured at 10 to 1440 mins post dose by LC-MS/MS analysis. The settings on record: mouse, in vivo. Type of data set: ADME, organism-based.
The next data set deals with Liver. In words: (§3) Half life in mouse liver S9 fractions at 2 uM in presence of NADPH by LC-MS/MS analysis. Particulars: s9, 2 µM. Format: ADME, tissue-based.
A short description of data set [3]: Plasma concentration in CD1 mouse at 10 mg/kg, ip measured at 3 hrs post dose by LC-MS/MS analysis. Type of data set: ADME, organism-based.
Data set [4] in a line: as §1. Format: ADME, organism-based. On the set-up: dose 10 mg/kg, route intraperitoneal. The settings on record: CD1, mouse, in vivo.
Data set [5] is described as follows: as §2. Format: ADME, organism-based. Particulars: CD1, mouse, in vivo.
The nature of data set [6]: as §3. Format: ADME, tissue-based. The settings on record: liver S9 fraction.
Data set [7] is described as follows: Plasma concentration in […] mouse at […], ip measured up to 3 hrs post dose by LC-MS/MS analysis. Format: ADME, organism-based.
Data set [8] in a line: Half life in human liver S9 fraction at 2 uM by LC-MS/MS analysis. Format: ADME, tissue-based.

This note sets out measurements from ChEMBL document CHEMBL4049436, “Inhibitors of 15-Prostaglandin Dehydrogenase To Potentiate Tissue Repair” (J Med Chem, 2017).

A value given as a limit tells only on which side of the number the result lay.

What is called Cmax is the highest concentration seen after dosing. As usually defined, the AUC is concentration integrated over time. High values mean more exposure, low ones less exposure. Regarding `CCCC[S+]([O-])c1sc2nc(-c3nccs3)cc(-c3ccc(OCCO)cc3)c2c1N` (stereo not drawn), the Cmax in the data set on Mus musculus [1] worked out at 13000 nM. This molecule returned an AUC in the data set on Mus musculus [2] of 959 µg·min/mL. Moreover, in the data set with Liver, the t1/2 is 1.38 h. For the same molecule, the concentration at 3 h in data set [3] stood at 4200 nM.

In general, half-life refers to how long it takes for the measured level to halve. In [4], `CCCC[S+]([O-])c1sc2nc(-c3cccs3)cc(-c3ccccc3)c2c1N` (stereo not drawn) had a Cmax of 1500 nM. Moreover, the area under the curve (AUC) in [5] was 1380 ng·h/mL. The half-life at 2 µM in data set [6] was 1.38 h.

The molecule `COCC[S+]([O-])c1sc2nc(-c3nccs3)cc(-c3cnc(C)n3C)c2c1N` (stereo not drawn) came in with a Cmax with Mus musculus [1] of 6200 nM. Moreover, the AUC in the data set on Mus musculus [2] turned out to be 116 µg·min/mL. The t1/2 in the data set with Liver was over 4 h. This molecule displayed a concentration at 3 h in data set [3] of 60 nM.

For the molecule `CCCC[S@@+]([O-])c1sc2nc(-c3nccs3)cc(-c3cnc(C)n3C)c2c1N`, the concentration in data set [4] peaked (Cmax) at 3100 nM. The molecule further showed an AUC in data set [5] of 783 ng·h/mL. Moreover, the concentration at 3 h in [7] and in data set [3] was under 10 nM each time. Besides, the half-life at 2 µM in data set [6] was 0.583 h; in data set [8], over 4 h.

In the case of `CCCC[S+]([O-])c1sc2nc(-c3nccs3)cc(-c3ccc(CO)cc3)c2c1N` (stereo not drawn), in the data set on Liver, the t1/2 was determined as 0.217 h.

Turning to `COCCC[S+]([O-])c1sc2nc(-c3nccs3)cc(-c3cnc(C)n3C)c2c1N` (stereo not drawn), the t1/2 with Liver was over 4 h.

`CCCC[S@@+]([O-])c1sc2nc(-c3cccs3)cc(-c3ccccc3)c2c1N`: the Cmax in data set [4] was determined as 1600 nM. Moreover, the AUC in data set [5] was 717 ng·h/mL. The half-life at 2 µM in [6] is 0.217 h.

As to `CCCC[S@+]([O-])c1sc2nc(-c3nccs3)cc(-c3cnc(C)n3C)c2c1N`, the half-life at 2 µM was 4.82 h in data set [6] and 3.73 h in data set [8].

With `CCCC[S+]([O-])c1sc2nc(-c3nccs3)cc(-c3ccc(COC(=O)CN(C)C)cc3)c2c1N` (stereo not drawn), the t1/2 in the data set on Liver was 0.033 h.

`CCCC[S+]([O-])c1sc2nc(-c3nccs3)nc(-c3ccccc3)c2c1N` (racemic) gave a Cmax in the data set on Mus musculus [1] of 10600 nM. This molecule also gave an AUC in the data set with Mus musculus [2] of 172 µg·min/mL. This molecule also displayed a concentration at 3 h in data set [3] of 60 nM.
